We go through twelve compounds from US3983105A, “Penicillins” (Bayer Aktiengesellschaft, priority 1971, dated 1976).

Holding throughout (format): cell-based
One experiment relates to Proteus vulgaris. As to the kind of experiment: MIC, test tube serial dilution, Proteus vulgaris.
Another experiment has as its system Staphylococcus aureus. As to the kind of experiment: MIC, test tube serial dilution, Staphylococcus aureus.
A further experiment has as its system Streptococcus faecalis. As to the kind of experiment: MIC, test tube serial dilution, Streptococcus faecalis.
Another experiment deals with Klebsiella-Aerobacter. As to the kind of experiment: MIC, test tube serial dilution, Klebsiella-Aerobacter.
The next experiment deals with Escherichia coli. The experiment is described as follows: MIC, test tube serial dilution, Escherichia coli.
The test system of another experiment is Pseudomonas aeruginosa. As to the kind of experiment: MIC, test tube serial dilution, Pseudomonas aeruginosa.
Another experiment relates to Proteus morganii. As to the kind of experiment: MIC, test tube serial dilution, Proteus morganii.
The mark [1] stands for this setting: strain 1756 (BRL 1 756), 24 hours, 37°C.

Take `CC(=O)N1CCN(C(=O)N[C@@H](C(=O)N[C@@H]2C(=O)N3[C@@H]2SC(C)(C)[C@@H]3C(=O)O)c2ccccc2)C1=O` [Example 1, Sodium D(-)-α-[(3-acetyl-imidazolidin-2-on-1-yl)-carbonylamino]-benzylpenicillin]: the MIC in the experiment on Proteus vulgaris (unit assumed) was determined as 6 µg/mL; against Staphylococcus aureus (setting [1]), 400 U/ml; in the experiment with Streptococcus faecalis (ATCC 9790, 24 hours, 37°C), 25 U/ml; with Klebsiella-Aerobacter (strain 63, 24 hours, 37°C), 25 U/ml; in the experiment with Klebsiella-Aerobacter (strain K 10, 24 hours, 37°C), 100 U/ml; in the experiment on Escherichia coli (strain 183/58, 24 hours, 37°C), 3 U/ml. Further, the MIC in the experiment on Escherichia coli (strain A 261, 24 hours, 37°C) was found to be 400 U/ml; in the experiment on Pseudomonas aeruginosa (strain Bonn, 24 hours, 37°C) it was 25 U/ml; with Pseudomonas aeruginosa (strain Walter, 24 hours, 37°C), 50 U/ml; with Proteus morganii (unit assumed), 6 µg/mL.
For `COC(=O)N1CCN(C(=O)N[C@@H](C(=O)N[C@@H]2C(=O)N3[C@@H]2SC(C)(C)[C@@H]3C(=O)O)c2ccccc2)C1=O` [Example 3, Sodium D(-)-α-[(3-methoxycarbonyl-imidazolidin-2-on-1-yl)-carbonylamino]-benzylpenicillin], the MIC in the experiment on Proteus vulgaris (unit assumed) was 8 µg/mL; with Staphylococcus aureus (setting [1]), greater than 256 U/ml; against Streptococcus faecalis (ATCC 9790, 24 hours, 37°C), 64 U/ml; in the experiment on Klebsiella-Aerobacter (strain 63, 24 hours, 37°C) it was 16 U/ml; in the experiment with Klebsiella-Aerobacter (strain K 10, 24 hours, 37°C), 16 U/ml; with Escherichia coli (strain 183/58, 24 hours, 37°C) it was 4 U/ml. The MIC against Pseudomonas aeruginosa (strain Bonn, 24 hours, 37°C) turned out to be 16 U/ml; in the experiment on Pseudomonas aeruginosa (strain Walter, 24 hours, 37°C) it was 16 U/ml; against Proteus morganii (unit assumed), 8 µg/mL.
In the case of `CN(C)C(=O)N1CCN(C(=O)N[C@@H](C(=O)N[C@@H]2C(=O)N3[C@@H]2SC(C)(C)[C@@H]3C(=O)O)c2ccccc2)C1=O` [Example 6, Sodium D(-)-α-[(3-dimethylaminocarbonyl-imidazolidin-2-on-1-yl)-carbonylamino]-benzylpenicillin], the MIC in the experiment on Proteus vulgaris (strain 1017, 24 hours, 37°C) is given as 16 U/ml; in the experiment with Staphylococcus aureus (setting [1]) it was 64 U/ml; with Streptococcus faecalis (ATCC 9790, 24 hours, 37°C), 32 U/ml; in the experiment on Klebsiella-Aerobacter (strain 63, 24 hours, 37°C), 32 U/ml; in the experiment on Klebsiella-Aerobacter (strain K 10, 24 hours, 37°C), 16 U/ml; against Escherichia coli (strain 183/58, 24 hours, 37°C) it was 4 U/ml. Further, the MIC was greater than 256 U/ml against Escherichia coli (strain A 261, 24 hours, 37°C); 32 U/ml in the experiment with Pseudomonas aeruginosa (strain Bonn, 24 hours, 37°C); 32 U/ml against Pseudomonas aeruginosa (strain Walter, 24 hours, 37°C); 64 U/ml in the experiment with Proteus morganii (strain 932, 24 hours, 37°C).
With `CC1(C)S[C@@H]2[C@H](NC(=O)[C@H](NC(=O)N3CCN(C(=O)N4CCCC4)C3=O)c3ccccc3)C(=O)N2[C@H]1C(=O)O` [Example 8, Sodium D(-)-α-[(3-pyrrolidyl-N-carbonyl-imidazolidin-2-on-1-yl)-carbonylamino]-benzylpenicillin], the MIC in the experiment on Proteus vulgaris (unit assumed) was 32 µg/mL; against Staphylococcus aureus (setting [1]), 128 U/ml; with Streptococcus faecalis (unit assumed), 128 µg/mL; against Escherichia coli (strain 183/58, 24 hours, 37°C), 4 U/ml; in the experiment on Pseudomonas aeruginosa (in µg/mL (unit assumed)), 32; with Proteus morganii (unit assumed) it was 64 µg/mL.
Regarding `CC1(C)S[C@@H]2[C@H](NC(=O)[C@H](NC(=O)N3CCN(C(=O)N4CCCCC4)C3=O)c3ccccc3)C(=O)N2[C@H]1C(=O)O` [Example 9, Sodium D(-)-α-[(3-piperdyl-N-carbonyl-imidazolidin-2-on-1-yl)-carbonylamino]-benzylpenicillin], the MIC is 32 µg/mL in the experiment on Proteus vulgaris (unit assumed); greater than 256 U/ml in the experiment on Staphylococcus aureus (setting [1]); 128 µg/mL in the experiment on Streptococcus faecalis (unit assumed); 8 against Klebsiella-Aerobacter (in µg/mL (unit assumed)); 4 U/ml in the experiment on Escherichia coli (strain 183/58, 24 hours, 37°C); greater than 256 U/ml in the experiment on Escherichia coli (strain A 261, 24 hours, 37°C). The MIC in the experiment with Pseudomonas aeruginosa (in µg/mL (unit assumed)) was found to be 32; against Pseudomonas aeruginosa (strain Bonn, 24 hours, 37°C) it was 64 U/ml; with Proteus morganii (unit assumed), 32 µg/mL.
Consider `CC1(C)S[C@@H]2[C@H](NC(=O)[C@H](NC(=O)N3CCN(C=O)C3=O)c3ccccc3)C(=O)N2[C@H]1C(=O)O` [Example 20, Sodium D(-)-α-[(3-formyl-imidazolidin-2-on-1-yl)-carbonylamino]-benzylpenicillin], for which the MIC against Proteus vulgaris (strain 1017, 24 hours, 37°C) was determined as 16 U/ml; against Staphylococcus aureus (setting [1]), 128 U/ml; against Streptococcus faecalis (unit assumed), 32 µg/mL; with Klebsiella-Aerobacter (in µg/mL (unit assumed)) it was 32; against Klebsiella-Aerobacter (strain 63, 24 hours, 37°C) it was 64 U/ml; in the experiment with Escherichia coli (strain 183/58, 24 hours, 37°C) it was 64 U/ml. The MIC in the experiment on Escherichia coli (strain A 261, 24 hours, 37°C) was greater than 256 U/ml; with Pseudomonas aeruginosa (in µg/mL (unit assumed)), 8; in the experiment with Pseudomonas aeruginosa (strain Walter, 24 hours, 37°C), 16 U/ml; in the experiment with Proteus morganii (unit assumed) it was 8 µg/mL.
For the compound `CCOC(=O)NS(=O)(=O)N1CCN(C(=O)N[C@@H](C(=O)N[C@@H]2C(=O)N3[C@@H]2SC(C)(C)[C@@H]3C(=O)O)c2ccccc2)C1=O` [Example 22, Sodium D(-)-α-{[3-(ethoxy-carbonyl-amino-sulphonyl)imidazolidin-2-on-1-yl]-carbonylamino}-benzylpenicillin], the MIC was 16 U/ml against Proteus vulgaris (strain 1017, 24 hours, 37°C); 128 U/ml against Staphylococcus aureus (setting [1]); 32 µg/mL with Streptococcus faecalis (unit assumed); 32 with Klebsiella-Aerobacter (in µg/mL (unit assumed)); 64 U/ml in the experiment with Klebsiella-Aerobacter (strain 63, 24 hours, 37°C); 8 U/ml in the experiment with Escherichia coli (strain 183/58, 24 hours, 37°C). Moreover, the MIC against Escherichia coli (strain A 261, 24 hours, 37°C) was greater than 256 U/ml; with Pseudomonas aeruginosa (in µg/mL (unit assumed)), 32; in the experiment with Pseudomonas aeruginosa (strain Bonn, 24 hours, 37°C), 16 U/ml; in the experiment with Proteus morganii (unit assumed), 128 µg/mL.
With `CCS(=O)(=O)N1CCN(C(=O)N[C@@H](C(=O)N[C@@H]2C(=O)N3[C@@H]2SC(C)(C)[C@@H]3C(=O)O)c2ccccc2)C1=O` [Example 24, Sodium D(-)-α-[(3-ethanesulphonyl-imidazolidin-2-on-1-yl)-carbonylamino]-benzylpenicillin], the MIC was 2 µg/mL against Proteus vulgaris (unit assumed); 32 U/ml in the experiment on Staphylococcus aureus (setting [1]); 16 U/ml against Streptococcus faecalis (ATCC 9790, 24 hours, 37°C); 8 against Klebsiella-Aerobacter (in µg/mL (unit assumed)); less than 1 U/ml with Escherichia coli (strain 183/58, 24 hours, 37°C); 512 U/ml against Escherichia coli (strain A 261, 24 hours, 37°C). Further, the figures for the MIC in the experiment with Pseudomonas aeruginosa (in µg/mL (unit assumed)) and in the experiment with Proteus morganii (unit assumed) were 32 and 2 µg/mL, respectively.
Turning to `CN(C(=O)N[C@@H](C(=O)N[C@@H]1C(=O)N2[C@@H]1SC(C)(C)[C@@H]2C(=O)O)c1ccccc1)C(=O)N1CCCS1(=O)=O` [Example 29, Sodium D(-)-α-{3-[N-(1,1-dioxo-isothiazolidin-2-yl)-carbonyl]-3-methyl}-ureido-benzylpenicillin], the MIC in the experiment with Proteus vulgaris (strain 1017, 24 hours, 37°C) turned out to be 64 U/ml; against Staphylococcus aureus (setting [1]) it was 256 U/ml; with Streptococcus faecalis (ATCC 9790, 24 hours, 37°C), 16 U/ml; against Klebsiella-Aerobacter (strain 63, 24 hours, 37°C), 64 U/ml; with Klebsiella-Aerobacter (strain K 10, 24 hours, 37°C), 64 U/ml; in the experiment on Escherichia coli (strain 183/58, 24 hours, 37°C), 32 U/ml. Also, the MIC in the experiment with Escherichia coli (strain A 261, 24 hours, 37°C) was greater than 256 U/ml; against Escherichia coli (strain C 165, 24 hours, 37°C), 16 U/ml; against Pseudomonas aeruginosa (strain Bonn, 24 hours, 37°C) it was 16 U/ml; with Pseudomonas aeruginosa (strain Walter, 24 hours, 37°C) it was 16 U/ml; in the experiment with Proteus morganii (unit assumed), 128 µg/mL.
Take `CC1(C)S[C@@H]2[C@H](NC(=O)[C@H](NC(=O)NC(=O)NS(C)(=O)=O)c3ccccc3)C(=O)N2[C@H]1C(=O)O` [Example 31, Sodium D(-)-α-(5 -mesyl-biureido)-benzylpenicillin]: the MIC with Proteus vulgaris (strain 1017, 24 hours, 37°C) was greater than 256 U/ml; against Staphylococcus aureus (setting [1]), 64 U/ml; in the experiment with Streptococcus faecalis (unit assumed), 32 µg/mL; with Klebsiella-Aerobacter (strain 63, 24 hours, 37°C), greater than 256 U/ml; with Klebsiella-Aerobacter (strain K 10, 24 hours, 37°C), greater than 256 U/ml; with Escherichia coli (strain 183/58, 24 hours, 37°C) it was 128 U/ml. In addition, the MIC against Escherichia coli (strain A 261, 24 hours, 37°C) is on record as greater than 256 U/ml; against Pseudomonas aeruginosa (strain Bonn, 24 hours, 37°C), 256 U/ml; in the experiment on Pseudomonas aeruginosa (strain Walter, 24 hours, 37°C), 256 U/ml; against Proteus morganii (strain 932, 24 hours, 37°C), 64 U/ml.
Consider `CC1(C)S[C@@H]2[C@H](NC(=O)C(NC(=O)N3CCN(S(C)(=O)=O)C3=O)c3ccc(Cl)cc3)C(=O)N2[C@H]1C(=O)O` (stereo partly drawn) [Penicillin No. 2 (Table 3), Sodium D,L-α-[(3-methylsulphonyl-imidazolidin-2-on-1-yl)-carbonylamino]-4-chlorobenzylpenicillin], for which the MIC in the experiment with Proteus vulgaris (Table 3, strain 1017) is listed as 8 U/ml; with Staphylococcus aureus (Table 3, strain 133), less than 1 U/ml; in the experiment on Staphylococcus aureus (Table 3, strain 1756E) it was 64 U/ml; against Streptococcus faecalis (Table 3, ATCC 9790), 64 U/ml; against Klebsiella-Aerobacter (Table 3, strain 63) it was 128 U/ml; in the experiment on Klebsiella-Aerobacter (Table 3, strain K 10), 32 U/ml. Also, the MIC is less than 1 U/ml with Escherichia coli (Table 3, strain 14); 4 U/ml against Escherichia coli (Table 3, strain 183/58); 256 U/ml in the experiment on Escherichia coli (Table 3, strain A 261); 4 U/ml in the experiment on Escherichia coli (Table 3, strain C 165); 128 U/ml with Pseudomonas aeruginosa (Table 3, strain F 41); 64 U/ml in the experiment on Pseudomonas aeruginosa (Table 3, strain Walter). Further, the MIC against Proteus morganii (Table 3, strain 932) is recorded as 8 U/ml.
Take `CC1(C)S[C@@H]2[C@H](NC(=O)C(NC(=O)N3CCN(S(C)(=O)=O)C3=O)c3cccs3)C(=O)N2[C@H]1C(=O)O` (stereo partly drawn) [Penicillin No. 3 (Table 3), Sodium D,L-α-[(3-methylsulphonyl-imidazolidin-2-on-1-yl)-carbonylamino]-α-thienyl-(2)-mthylpenicillin]: the MIC against Proteus vulgaris (Table 3, strain 1017) was 4 U/ml; in the experiment with Staphylococcus aureus (Table 3, strain 133) it was less than 1 U/ml; in the experiment on Staphylococcus aureus (Table 3, strain 1756E) it was 128 U/ml; against Streptococcus faecalis (unit assumed), 32 µg/mL; in the experiment with Klebsiella-Aerobacter (Table 3, strain 63), 256 U/ml; with Klebsiella-Aerobacter (Table 3, strain K 10), 16 U/ml. Also, the MIC is listed as less than 1 U/ml against Escherichia coli (Table 3, strain 14); 4 U/ml in the experiment on Escherichia coli (Table 3, strain 183/58); 256 U/ml against Escherichia coli (Table 3, strain A 261); 4 U/ml in the experiment on Escherichia coli (Table 3, strain C 165); 64 U/ml against Pseudomonas aeruginosa (Table 3, strain F 41); 64 U/ml with Pseudomonas aeruginosa (Table 3, strain Walter). Moreover, in the experiment on Proteus morganii (Table 3, strain 932), the MIC is on record as 16 U/ml.
